Drawing on patent US11708348B2, “Protease inhibitors for treatment of coronavirus infections” (The Scripps Research Institute, priority 2021, dated 2023), this text covers EC50 for 22 molecules.

In one assay the test system is SARS-CoV-2 strain USA-WA1/2020. The assay can be described thus: microbe, parasite or virus in culture. To be noted: HeLa-ACE2 cells, SARS-CoV-2 infection, 24 h; class symbols; read-out: EC50, uM (Hela). It is filed as cell-based.
With `COc1cccc2[nH]c(C(=O)N[C@@H](CC(C)C)C(=O)N[C@@H](C[C@@H]3CCNC3=O)C(=O)COC(=O)c3c(Cl)cccc3Cl)cc12` [Compound 3, (S)-3-((S)-2-(4-methoxy-1H-indole-2-carboxamido)-4-methylpentanamido)-2-oxo-4-((S)-2-oxopyrrolidin-3-yl)butyl 2,6-dichlorobenzoate], the EC50 was in the range of 0.2 to 0.5 µM.

Staying with this assay, now noted: Severe acute respiratory syndrome coronavirus 2, HeLa-ACE2, 24 h, HeLa-ACE2 cells, SARS-CoV-2 infection, 24 h; cells given as a bound; read-out: EC50, uM (Hela).
As to `COc1cccc2[nH]c(C(=O)N[C@@H](CC(C)C)C(=O)N[C@@H](C[C@@H]3CCNC3=O)C(=O)COC(C(F)F)C(F)F)cc12` [Compound 178, 4-methoxy-N-((S)-4-methyl-1-oxo-1-(((S)-3-oxo-1-((S)-2-oxopyrrolidin-3-yl)-4-((1,1,3,3-tetrafluoropropan-2-yl)oxy)butan-2-yl)amino)pentan-2-yl)-1H-indole-2-carboxamide], the concentration giving a half-maximal response (EC50) was greater than 1 µM.

Turning to `COc1cccc2[nH]c(C(=O)N[C@@H](CC(C)C)C(=O)N[C@@H](C[C@@H]3CCNC3=O)C(=O)COC(C(F)(F)F)C(F)(F)F)cc12` [Compound 157], the EC50 is greater than 1 µM.

Still in this assay, the particulars now being: Severe acute respiratory syndrome coronavirus 2, HeLa-ACE2, 24 h, HeLa-ACE2 cells, SARS-CoV-2 infection, 24 h; class symbols; read-out: EC50, uM (Hela).
`O=C1NCC[C@H]1C[C@H](NC(=O)[C@@H]1CC2(CC2)CN1C(=O)[C@H]1CCCO1)C(=O)COC(F)(F)F` [Compound 305, (S)-N-((S)-3-oxo-1-((S)-2-oxopyrrolidin-3-yl)-4-(trifluoromethoxy)butan-2-yl)-5-((R)-tetrahydrofuran-2-carbonyl)-5-azaspiro[2.4]heptane-6-carboxamide]: the EC50 was in the range of 0.2 to 0.5 µM.

For `CC(C)C[C@H](NC(=O)c1ncc(-c2cccc(F)c2)[nH]1)C(=O)N[C@@H](C[C@@H]1CCNC1=O)C(=O)COC(F)(F)F` [Compound 209, 5-(3-fluorophenyl)-N-((S)-4-methyl-1-oxo-1-(((S)-3-oxo-1-((S)-2-oxopyrrolidin-3-yl)-4-(trifluoromethoxy)butan-2-yl)amino)pentan-2-yl)-1H-imidazole-2-carboxamide], the EC50 was less than 0.05 µM. Still for that read-out and setting: in the case of `Cc1ccc(F)cc1NC(=O)C(=O)N[C@@H](CC(C)C)C(=O)N[C@@H](C[C@@H]1CCNC1=O)C(=O)COc1c(F)c(F)cc(F)c1F` [Compound 83, Nl-(5-fluoro-2-methylphenyl)-N2-((S)-4-methyl-1-oxo-1-(((S)-3-oxo-1-((S)-2-oxopyrrolidin-3-yl)-4-(2,3,5,6-tetrafluorophenoxy)butan-2-yl)amino)pentan-2-yl)oxalamide] it was less than 0.05 µM; in that of `CC(C)C[C@H](NC(=O)C12CC(C(F)F)(CO1)C2)C(=O)N[C@@H](C[C@@H]1CCNC1=O)C(=O)COC(F)(F)F` [Compound 319, 4-(difluoromethyl)-N-((S)-4-methyl-1-oxo-1-(((S)-3-oxo-1-((S)-2-oxopyrrolidin-3-yl)-4-(trifluoromethoxy)butan-2-yl)amino)pentan-2-yl)-2-oxabicyclo-[2.1.1]hexane-1-carboxamide], less than 0.05 µM.

As to `CC(C)C[C@H](NC(=O)C(Nc1ccccc1F)C(F)(F)F)C(=O)N[C@@H](C[C@@H]1CCNC1=O)C(=O)COc1c(F)c(F)cc(F)c1F` (stereo partly drawn) [Compound 97, (2S)-4-methyl-N-((S)-3-oxo-1-((S)-2-oxopyrrolidin-3-yl)-4-(2,3,5,6-tetrafluorophenoxy)butan-2-yl)-2-(3,3,3-trifluoro-2-((2-fluorophenyl)-amino)propanamido)-pentanamide], the EC50 was in the range of 0.2 to 0.5 µM. Same read-out and setting: for `COc1ccc(C[C@H](NC(=O)c2cc3cc(F)ccc3[nH]2)C(=O)N[C@@H](CC2CCNC2=O)C(=O)COc2c(F)c(F)cc(F)c2F)cc1` (stereo partly drawn) [Compound 19, 5-fluoro-N-((2S)-3-(4-methoxyphenyl)-1-oxo-1-(((2S)-3-oxo-1-(2-oxopyrrolidin-3-yl)-4-(2,3,5,6-tetrafluorophenoxy)butan-2-yl)amino)propan-2-yl)-1H-indole-2-carboxamide] the value was 0.2 to 0.5 µM; for `O=C1NCC[C@H]1C[C@H](NC(=O)[C@@H]1CC2(CC2)CN1C(=O)C12CC(C(F)F)(CO1)C2)C(=O)COC(F)(F)F` [Compound 320, (S)-5-(4-(difluoromethyl)-2-oxabicyclo[2.1.1]-hexane-1-carbonyl)-N-((S)-3-oxo-1-((S)-2-oxopyrrolidin-3-yl)-4-(trifluoromethoxy)butan-2-yl)-5-azaspiro[2.4]-heptane-6-carboxamide], 0.2 to 0.5 µM; for `Cc1cc(C(=O)N[C@H](C(=O)N[C@@H](CC(C)C)C(=O)N[C@@H](C[C@@H]2CCNC2=O)C(=O)COc2c(F)c(F)cc(F)c2F)C(C)C)no1` [Compound 115, 5-methyl-N-((S)-3-methyl-1-(((S)-4-methyl-1-oxo-1-(((S)-3-oxo-1-((S)-2-oxopyrrolidin-3-yl)-4-(2,3,5,6-tetrafluorophenoxy)butan-2-yl)amino)pentan-2-yl)amino)-1-oxobutan-2-yl)isoxazole-3-carboxamide], 0.2 to 0.5 µM. On the same count and under the same terms, for `CC(C)C[C@H](NC(=O)C(=O)NCC1CCCC1)C(=O)N[C@@H](C[C@@H]1CCNC1=O)C(=O)COc1c(F)c(F)cc(F)c1F` [Compound 81, N^1-(cyclopentylmethyl)-N^2—((S)-4-methyl-1-oxo-1-(((S)-3-oxo-1-((S)-2-oxopyrrolidin-3-yl)-4-(2,3,5,6-tetrafluorophenoxy)butan-2-yl)amino)pentan-2-yl)oxalamide] the value was 0.05 to 0.2 µM.

The assay is the same for the next values; noted with them: Severe acute respiratory syndrome coronavirus 2, HeLa-ACE2, 24 h, HeLa-ACE2 cells, SARS-CoV-2 infection, 24 h; read-out: EC50, uM (Hela).
On to `O=C(Nc1ccccc1F)C(=O)N1CC[C@H]1C(=O)N[C@@H](C[C@@H]1CCNC1=O)C(=O)COC(F)(F)F` [Compound 583, (S)-1-(2-((2-fluoro-phenyl)amino)-2-oxoacetyl)-N-((S)-3-oxo-1-((S)-2-oxopyrrolidin-3-yl)-4-(trifluoromethoxy)butan-2-yl)azetidine-2-carboxamide], for which the EC50 lay in the range of 0.05 to 0.2 µM. For the molecule `CC(C)(C)C[C@@H](O)C(=O)N1C[C@H]2[C@@H]([C@H]1C(=O)N[C@@H](C[C@@H]1CCNC1=O)C(=O)COC(F)(F)F)C2(C)C` [Compound 454, (1R,2S,5S)-3-((R)-2-hydroxy-4,4-dimethylpentanoyl)-6,6-dimethyl-N-((S)-3-oxo-1-((S)-2-oxopyrrolidin-3-yl)-4-(trifluoromethoxy)butan-2-yl)-3-azabicyclo[3.1.0]-hexane-2-carboxamide], the EC50 was less than 0.05 µM.

Take `C[C@@H](C[C@@H](O)C(=O)N1CC2(CC2)C[C@H]1C(=O)N[C@@H](C[C@@H]1CCNC1=O)C(=O)COC(F)(F)F)C(F)(F)F` [Compound 427, (S)-N-((S)-3-oxo-1-((S)-2-oxopyrrolidin-3-yl)-4-(trifluoromethoxy)butan-2-yl)-5-((2R,4S)-5,5,5-trifluoro-2-hydroxy-4-methylpentanoyl)-5-azaspiro[2.4]heptane-6-carboxamide]: the EC50 is less than 0.05 µM. Same read-out and setting: in the case of `COc1cccc2[nH]c(C(=O)N3CC4(CC4)C[C@H]3C(=O)N[C@@H](C[C@@H]3CCNC3=O)C(=O)COC(F)(F)F)cc12` [Compound 605, (S)-5-(4-methoxy-1H-indole-2-carbonyl)-N-((S)-3-oxo-1-((S)-2-oxopyrrolidin-3-yl)-4-(trifluorometh-oxy)butan-2-yl)-5-azaspiro[2.4]heptane-6-carboxamide] it was less than 0.05 µM; in that of `CC1(C)CCc2onc(C(=O)N3CC4(CC4)C[C@H]3C(=O)N[C@@H](C[C@@H]3CCNC3=O)C(=O)COC(F)(F)F)c2C1` [Compound 568, (S)-5-(5,5-dimethyl-4,5,6,7-tetrahydro-benzo[d]isoxazole-3-carbonyl)-N-((S)-3-oxo-1-((S)-2-oxopyrrolidin-3-yl)-4-(trifluoromethoxy)butan-2-yl)-5-azaspiro[2.4]-heptane-6-carboxamide], 0.05 to 0.2 µM. On the same count and under the same terms, in the case of `O=C(NC1CC1)C(=O)N1C[C@@H]2CCC[C@@H]2[C@H]1C(=O)N[C@@H](C[C@@H]1CCNC1=O)C(=O)COC(F)(F)F` [Compound 497, (1S,3aR,6aS)-2-(2-(cyclopropylamino)-2-oxoacetyl)-N-((S) -3-oxo-1-((S)-2-oxopyrrolidin-3-yl)-4-(trifluoromethoxy)butan-2-yl)octahydrocyclo-penta[c]pyrrole-1-carboxamide] it was 0.05 to 0.2 µM. The same measure, in the same setting: for `O=C1NCC[C@H]1C[C@H](NC(=O)[C@@H]1CC2(CC2)CN1C(=O)C(O)(c1ccccc1)C(F)(F)F)C(=O)COC(F)(F)F` (stereo partly drawn) [Compound 681, (6S)-N-((S)-3-oxo-1-((S)-2-oxopyrrolidin-3-yl)-4-(trifluoromethoxy)butan-2-yl)-5-(3,3,3-trifluoro-2-hydroxy-2-phenylpropanoyl)-5-azaspiro[2.4]heptane-6-carboxamide] the value was 0.05 to 0.2 µM; for `Cc1ccccc1NC(=O)C(=O)N[C@@H](CC1CC1)C(=O)N[C@@H](C[C@@H]1CCNC1=O)C(=O)COC(F)(F)F` [Compound 507, N1-((S)-3-cyclopropyl-1-oxo-1-(((S)-3-oxo-1-((S)-2-oxopyrrolidin-3-yl)-4-(trifluoromethoxy)butan-2-yl)amino)propan-2-yl)-N2-(o-tolyl)oxalamide], less than 0.05 µM.

`CC1(C[C@H](NC(=O)C(=O)NC23CC(F)(C2)C3)C(=O)N[C@@H](C[C@@H]2CCNC2=O)C(=O)COC(F)(F)F)CC1` [Compound 582, N1-(3-fluorobicyclo-[1.1.1]pentan-1-yl)-N2-((S)-3-(l-methyl-cyclopropyl)-1-oxo-1-(((S)-3-oxo-1-((S)-2-oxopyrrolidin-3-yl)-4-(trifluoromethoxy)butan-2-yl)amino)propan-2-yl)oxalamide]: the EC50 is less than 0.05 µM.

Still in this assay, the particulars now being: Severe acute respiratory syndrome coronavirus 2, HeLa-ACE2, 24 h; read-out: EC50, uM (Hela).
`CC(C)(C)[C@H](NC(=O)C(F)(F)F)C(=O)N1C[C@@H]2CCC[C@@H]2[C@H]1C(=O)N[C@@H](C[C@@H]1CCNC1=O)C(=O)COC(F)(F)F` [Compound 266, (1S,3aR,6aS)-2-((S)-3,3-dimethyl-2-(2,2,2-trifluoroacetamido)-butanoyl)-N-((S)-3-oxo-1-((S)-2-oxopyrrolidin-3-yl)-4-(trifluoromethoxy)butan-2-yl)octahydrocyclo-penta[c]pyrrole-1-carboxamide]: the concentration giving a half-maximal response (EC50) was less than 0.05 µM.

Broadly, the EC50 is the concentration needed to bring the measured effect to its halfway point.
